Experimental data from patent US10538555B2, “Macrocyclic inhibitors of the PD-1/PD-L1 and CD80(B7-1)/PD-L1 protein/protein interactions” (BRISTOL-MYERS SQUIBB COMPANY, priority 2014, dated 2020).
Where a SMILES comes first, the peptide text is derived from it. Bridges are numbered along the chain shown (N, C = ends). [ ]: non-standard residue; d: D form. ξ: configuration not given here. Trp(1-CH2COOH) = N[C@@H](Cc1cn(CC(=O)O)c2ccccc12)C(=O)O; Hyp = O=C(O)[C@@H]1C[C@@H](O)CN1; NMeNle = CCCC[C@H](NC)C(=O)O; NMeA = CN[C@@H](C)C(=O)O; Dab = NCC[C@H](N)C(=O)O; Dap = NC[C@H](N)C(=O)O; ξP = O=C(O)C1CCCN1

Each molecule was assayed against T1, Human PD-L1/PD-1 (Homo sapiens, UniProt Q9NZQ7) (assay: HTRF Human PD-L1/PD-1 binding assay (PD-1-Ig/PD-L1-His)). Details: PD-L1-His 10 nM, PD-1-Ig 20 nM; class symbol; read-out: HTRF Human PD-L1/PD-1 Binding Assay IC50 Range.
T1 construct: TVMV protease cleavage site (C); made in house; host or cells: HEK293T cells
How it was run: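 Competition of macrocyclic peptides for PD-1/PD-L1 binding measured by HTRF in dPBS containing 0.1% BSA and 0.05% Tween-20. Compound and PD-L1-His (10 nM final) incubated 15 min before PD-1-Ig (20 nM final) and a further 15 min.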

T1 sequence (Q9NZQ7 with tags, fused parts or gaps): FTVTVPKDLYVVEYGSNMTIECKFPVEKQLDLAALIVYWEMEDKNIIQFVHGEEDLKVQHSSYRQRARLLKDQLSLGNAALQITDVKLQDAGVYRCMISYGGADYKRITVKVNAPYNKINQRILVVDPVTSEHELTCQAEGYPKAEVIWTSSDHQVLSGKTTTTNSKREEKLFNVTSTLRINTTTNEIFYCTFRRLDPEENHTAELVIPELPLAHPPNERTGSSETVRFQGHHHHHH

`CCCC[C@H]1C(=O)N(C)[C@@H](CCCC)C(=O)N[C@@H](CCN)C(=O)N[C@H](C(=O)NCC(N)=O)CSCC(=O)N[C@@H](Cc2ccc(O)cc2)C(=O)N(C)[C@@H](C)C(=O)N[C@@H](CC(N)=O)C(=O)N2CCC[C@H]2C(=O)N[C@@H](CN)C(=O)N[C@@H](CCC(N)=O)C(=O)N2C[C@H](O)C[C@H]2C(=O)N[C@@H](Cc2c[nH]c3ccccc23)C(=O)N[C@@H](CO)C(=O)N[C@@H](Cc2cn(CC(=O)O)c3ccccc23)C(=O)N1C` [Example 6119] ({CH2CO}-Y[NMeA]NP[Dap]Q[Hyp]WS[Trp(1-CH2COOH)][NMeNle][NMeNle][Dab]CG-NH2; thioether N-14) and `CCCC[C@H]1C(=O)N(C)[C@@H](CCCC)C(=O)N[C@@H](CC(C)C)C(=O)N[C@H](C(=O)NCC(N)=O)CSCC(=O)N[C@@H](Cc2ccc(O)cc2)C(=O)N(C)[C@@H](C)C(=O)N[C@@H](CC(N)=O)C(=O)N2CCC[C@H]2C(=O)N[C@@H](CN)C(=O)N[C@@H](CCC(=O)O)C(=O)N2C[C@H](O)C[C@H]2C(=O)N[C@@H](Cc2c[nH]c3ccccc23)C(=O)N[C@@H](CCN)C(=O)N[C@@H](Cc2cn(CC(=O)O)c3ccccc23)C(=O)N1C` [Example 6146] ({CH2CO}-Y[NMeA]NP[Dap]E[Hyp]W[Dab][Trp(1-CH2COOH)][NMeNle][NMeNle]LCG-NH2; thioether N-14) fall in the same range of IC50: 1 to 9.9 nM for the first, 1 to 9.9 nM for the second.

`CCCC[C@H]1C(=O)N(C)[C@@H](CCCC)C(=O)N[C@@H](CCC(=O)O)C(=O)N[C@H](C(=O)NCC(N)=O)CSCC(=O)N[C@@H](Cc2ccc(O)cc2)C(=O)N(C)[C@@H](C)C(=O)N[C@@H](CC(N)=O)C(=O)N2CCC[C@H]2C(=O)N[C@@H](Cc2cnc[nH]2)C(=O)N[C@@H](CCC(=O)O)C(=O)N2C[C@H](O)C[C@H]2C(=O)N[C@@H](Cc2c[nH]c3ccccc23)C(=O)N[C@@H](CCN)C(=O)N[C@@H](Cc2cn(CC(=O)O)c3ccccc23)C(=O)N1C` [Example 6134] ({CH2CO}-Y[NMeA]NPHE[Hyp]W[Dab][Trp(1-CH2COOH)][NMeNle][NMeNle]ECG-NH2; thioether N-14) and `CCCC[C@H]1C(=O)N(C)[C@@H](CCCC)C(=O)N[C@@H](CC(C)C)C(=O)N[C@H](C(=O)NCC(N)=O)CSCC(=O)N[C@@H](Cc2ccc(O)cc2)C(=O)N(C)[C@@H](C)C(=O)N[C@@H](CC(=O)O)C(=O)N2CCC[C@H]2C(=O)N[C@@H](Cc2cnc[nH]2)C(=O)N[C@@H](CCC(=O)O)C(=O)N2C[C@H](O)C[C@H]2C(=O)N[C@@H](Cc2c[nH]c3ccccc23)C(=O)N[C@@H](CCN)C(=O)N[C@@H](Cc2cn(CC(=O)O)c3ccccc23)C(=O)N1C` [Example 6141] ({CH2CO}-Y[NMeA]DPHE[Hyp]W[Dab][Trp(1-CH2COOH)][NMeNle][NMeNle]LCG-NH2; thioether N-14) fall in the same range of IC50: 1 to 9.9 nM for the first, 1 to 9.9 nM for the second.

Compared with `CCCC[C@H]1C(=O)N(C)[C@@H](CCCC)C(=O)N[C@@H](CCC(=O)O)C(=O)N[C@H](C(=O)NCC(N)=O)CSCC(=O)N[C@@H](Cc2ccc(O)cc2)C(=O)N(C)[C@@H](C)C(=O)N[C@@H](CC(=O)O)C(=O)N2CCC[C@H]2C(=O)N[C@@H](CO)C(=O)N[C@@H](CC(C)C)C(=O)N2C[C@H](O)C[C@H]2C(=O)N[C@@H](Cc2c[nH]c3ccccc23)C(=O)N[C@@H](CCN)C(=O)N[C@@H](Cc2cn(CC(=O)O)c3ccccc23)C(=O)N1C` [Example 6135] ({CH2CO}-Y[NMeA]DPSL[Hyp]W[Dab][Trp(1-CH2COOH)][NMeNle][NMeNle]ECG-NH2; thioether N-14), `CCCC[C@H]1C(=O)N(C)[C@@H](CCCC)C(=O)N[C@@H](CCC(=O)O)C(=O)N[C@H](C(=O)NCC(N)=O)CSCC(=O)N[C@@H](Cc2ccc(O)cc2)C(=O)N(C)[C@@H](C)C(=O)N[C@@H](CC(N)=O)C(=O)N2CCC[C@H]2C(=O)N[C@@H](CO)C(=O)N[C@@H](CC(C)C)C(=O)N2C[C@H](O)C[C@H]2C(=O)N[C@@H](Cc2c[nH]c3ccccc23)C(=O)N[C@@H](CCN)C(=O)N[C@@H](Cc2cn(CC(=O)O)c3ccccc23)C(=O)N1C` [Example 6136] ({CH2CO}-Y[NMeA]NPSL[Hyp]W[Dab][Trp(1-CH2COOH)][NMeNle][NMeNle]ECG-NH2; thioether N-14) is higher in IC50: 1 to 9.9 nM for the first, 10 to 99.9 nM for the second.

First: CCCC[C@H]1C(=O)N(C)[C@@H](CCCC)C(=O)N[C@@H](CCC(=O)O)C(=O)N[C@H](C(=O)NCC(N)=O)CSCC(=O)N[C@@H](Cc2ccc(O)cc2)C(=O)N(C)[C@@H](C)C(=O)N[C@@H](CC(N)=O)C(=O)N2CCC[C@H]2C(=O)N[C@@H](CN)C(=O)N[C@@H](CC(C)C)C(=O)N2C[C@H](O)C[C@H]2C(=O)N[C@@H](Cc2c[nH]c3ccccc23)C(=O)N[C@@H](CO)C(=O)N[C@@H](Cc2cn(CC(=O)O)c3ccccc23)C(=O)N1C [Example 6137] ({CH2CO}-Y[NMeA]NP[Dap]L[Hyp]WS[Trp(1-CH2COOH)][NMeNle][NMeNle]ECG-NH2; thioether N-14)
Second: CCCC[C@H]1C(=O)N(C)[C@@H](CCCC)C(=O)N[C@@H](CN)C(=O)N[C@H](C(N)=O)CSCC(=O)N[C@@H](Cc2ccc(O)cc2)C(=O)N(C)[C@@H](C)C(=O)N[C@@H](CC(N)=O)C(=O)N2CCC[C@H]2C(=O)N[C@@H](CN)C(=O)N[C@@H](CC(C)C)C(=O)N2C[C@H](O)C[C@H]2C(=O)N[C@@H](Cc2c[nH]c3ccccc23)C(=O)N[C@@H](CO)C(=O)N[C@@H](Cc2cn(CC(=O)O)c3ccccc23)C(=O)N1C [Example 6140]
The IC50 of the first is higher: 10 to 99.9 nM for the first, 1 to 9.9 nM for the second. The second is the more potent here.

`CCCC[C@H]1C(=O)N(C)[C@@H](CCCC)C(=O)N[C@@H](CC(C)C)C(=O)N[C@H](C(=O)NCC(N)=O)CSCC(=O)N[C@@H](Cc2ccc(O)cc2)C(=O)N(C)[C@@H](C)C(=O)N[C@@H](CC(=O)O)C(=O)N2CCC[C@H]2C(=O)N[C@@H](Cc2cnc[nH]2)C(=O)N[C@@H](CCCCN)C(=O)N2C[C@H](O)C[C@H]2C(=O)N[C@@H](Cc2c[nH]c3ccccc23)C(=O)N[C@@H](CCCCN)C(=O)N[C@@H](Cc2cn(CC(=O)O)c3ccccc23)C(=O)N1C` [Example 6156] ({CH2CO}-Y[NMeA]DPHK[Hyp]WK[Trp(1-CH2COOH)][NMeNle][NMeNle]LCG-NH2; thioether N-14) and `CCCC[C@H]1C(=O)N(C)[C@@H](CCCC)C(=O)N[C@@H](C)C(=O)N[C@H](C(=O)NCC(N)=O)CSCC(=O)N[C@@H](Cc2ccc(O)cc2)C(=O)N(C)[C@@H](C)C(=O)N[C@@H](CC(=O)O)C(=O)N2CCC[C@H]2C(=O)N[C@@H](Cc2cnc[nH]2)C(=O)N[C@@H](CCC(N)=O)C(=O)N2C[C@H](O)C[C@H]2C(=O)N[C@@H](Cc2c[nH]c3ccccc23)C(=O)N[C@@H](CCN)C(=O)N[C@@H](Cc2cn(CC(=O)O)c3ccccc23)C(=O)N1C` [Example 6158] ({CH2CO}-Y[NMeA]DPHQ[Hyp]W[Dab][Trp(1-CH2COOH)][NMeNle][NMeNle]ACG-NH2; thioether N-14) fall in the same range of IC50: 1 to 9.9 nM for the first, 1 to 9.9 nM for the second.

`CCCC[C@H]1C(=O)N(C)[C@@H](CCCC)C(=O)N[C@@H](CC(C)C)C(=O)N[C@H](C(=O)NCC(N)=O)CSCC(=O)N[C@@H](Cc2ccc(O)cc2)C(=O)N(C)[C@@H](C)C(=O)N[C@@H](CC(N)=O)C(=O)N2CCCC2C(=O)N[C@@H](Cc2cnc[nH]2)C(=O)N[C@@H](CCC(N)=O)C(=O)N[C@H](C)C(=O)N[C@@H](Cc2c[nH]c3ccccc23)C(=O)N[C@@H](CO)C(=O)N[C@@H](Cc2c[nH]c3ccccc23)C(=O)N1C` (some centres unmarked) [Example 6168] ({CH2CO}-Y[NMeA]N[ξP]HQ[dA]WSW[NMeNle][NMeNle]LCG-NH2; thioether N-14) was tested, and the IC50 was 10 to 99.9 nM.
